Measured values reported in patent publication US3996361A, “N^6 -Substituted-9-[3-(4-phenyl-piperazino)-propyl]-adenines” (Boehringer Mannheim G.m.b.H., priority 1974, dated 1976).

Test system: PCA reaction induced by reaginic (IgE-like) antibodies to egg albumin
Experiment: inhibition of the passive cutaneous anaphylactic (PCA) reaction in rats induced by reaginic antibodies to egg albumin
Type: in vivo, rat
Method: Diethylcarbamazin, i.e. 1-diethylcarbamoyl-4-methylpiperazine, was used as a comparison compound. Specifically, tests were run as follows:
Serum containing reaginic (IgE-like) antibody to egg albumin was prepared by injecting rats intramuscularly with 0.1 ml of a solution of the antigen (10 mg/ml) in saline together with 0.5 ml of Bordetella pertussis vaccine (Behring; 2 × 10^10 organisms/ml). 9-14 Days later the animals were bled from the abdominal aorta; the serum was pooled and stored at -20° C until required. The titer of the serum, i.e. the highest dilution inducing passive cutaneous anaphylaxis (PCA) in the rat following a 48-hour latent period, was between 1:8 and 1:32. For use in these experiments the serum was diluted 1:24.
The animals were anesthetized with 2,2-dichloro-1,1-difluoroethyl-methyl ether, sold under the trademark Penthrane, and were sensitized by injecting 0.1 ml of the antiserum into the shaved abdominal flanks. After 48 hours for reaginic PCA, the animals were given an intravenous injection of 1 ml of saline solution containing 0.5% by weight of egg albumin and 0.25% by weight of Evans blue.
After having killed and exsanguinated the animals, the size in square millimeters and the intensity, in arbitary scores, of the resulting blue spot were determined. The product of these two parameters was used to determine the degree of the reaction and the degree of reaction with no active material was taken as the standard against which to measure % inhibition of the anaphylactic reaction.
6 Animals were used per dose level and for control.
In some instances the test material was injected intravenously (i.v.) immediately before the antigen, using a solution in water containing 0.5% HCl and 2% of dimethylformamide, and in other instances intraperitoneally (i.p.) 20 minutes before the antigen, using a suspension in water containing 1% of methylcellulose. The volume of the injection was varied to give the indicated dosage of active material.

[1] = 3 mg/kg i.p. 20 min. before antigen (ovalbumin 5 mg/animal i.v.)
[2] = 3 mg/kg i.v. immediately before antigen (ovalbumin 5 mg/animal i.v.)

CCN(CC)C(=O)N1CCN(C)CC1 [Diethylcarbamazin, 1-diethylcarbamoyl-4-methylpiperazine, reference compound]
% Inhibition of PCA, i.p. (60 mg/kg i.p. 20 min. before antigen (ovalbumin 5 mg/animal i.v.)): 19% | % Inhibition of PCA, i.v. (60 mg/kg i.v. immediately before antigen (ovalbumin 5 mg/animal i.v.)): 58%

CCCCNc1ncnc2c1ncn2CCCN1CCN(c2ccccc2)CC1 [Ex. 1 (ab), N^6-n-butyl-9-[3-(4-phenyl-piperazino)-propyl]-adenine]
% Inhibition of PCA, i.p. [1]: 69%

CCNc1ncnc2c1ncn2CCCN1CCN(c2ccccc2)CC1 [Ex. 1 (d), N^6-ethyl-9-[3-(4-phenyl-piperazino)-propyl]-adenine]
% Inhibition of PCA, i.p. [1]: 41% | % Inhibition of PCA, i.v. [2]: 91%

CNc1ncnc2c1ncn2CCCN1CCN(c2ccc(F)cc2)CC1 [Ex. 1 (q), N^6-methyl-9-{3-[4-(4-fluorophenyl)-piperazino]-propyl}-adenine]
% Inhibition of PCA, i.p. [1]: 57%

CNc1ncnc2c1ncn2CCCN1CCN(c2ccc(C)cc2)CC1 [Ex. 1 (y), N^6-methyl-9-{3-[4-(4-methylphenyl)-piperazino]-propyl}-adenine]
% Inhibition of PCA, i.p. [1]: 33% | % Inhibition of PCA, i.v. [2]: 61%

CCCNc1ncnc2c1ncn2CCCN1CCN(c2ccccc2)CC1 [Ex. 2, N^6-n-Propyl-9-[3-(4-phenyl-piperazino)-propyl]-adenine]
% Inhibition of PCA, i.p. [1]: 59% | % Inhibition of PCA, i.v. [2]: 83%
